Reference: US20210267194A1, “SEED TREATMENT METHOD” (priority 2018, published 2021)
In brackets after ≈: the same amount, converted by molar mass. Where two headings read alike, the source gives them in different places.

Experiments:
[1] = footnote a: Chemistry Dashboard of the US Environmental Protection Agency; cited from earlier work
[2] = Density of the active ingredient (Table 1); type: physicochemical
[3] = footnote a: Chemistry Dashboard of the US Environmental Protection Agency; cited from earlier work; remark: listed apart in the source
[4] = Solubility in water of the active ingredient (Table 1); details: for solubility: water
physchem = details: water

| Molecule | Density [1] | Density [2] | also measured |
| --- | --- | --- | --- |
| Fc1ccc([C@]2(Cn3cncn3)O[C@H]2c2ccccc2Cl)cc1 (racemic) [Epoxiconazole] | 1.42^a g/mL | – | – |
| Cc1c(F)c(F)c(COC(=O)[C@@H]2[C@H](/C=C(\Cl)C(F)(F)F)C2(C)C)c(F)c1F (racemic) [Tefluthrin] | – | 1.48 g/mL | – |
| CO/C=C(/C(=O)OC)c1ccccc1Oc1cc(Oc2ccccc2C#N)ncn1 [Azoxystrobin] | 1.34^a g/mL | – | Solubility in Water [3]: 6.01^a mg/L |
| CC1(C)C(C=C(Cl)Cl)C1C(=O)OC(C#N)c1ccc(F)c(Oc2ccccc2)c1 (stereo not drawn) [Beta-Cyfluthrin] | – | 1.35 g/mL | Solubility in Water [4]: 0.0012 mg/L (≈ 0.00276 µM) |
| COC(=O)Nc1nc2ccccc2[nH]1 [Carbendazim] | 1.39^a g/mL | 1.45 g/mL | solubility (physchem): 8 µg/mL (≈ 41.8 µM) |
| CNC(=O)c1cc(Cl)cc(C)c1NC(=O)c1cc(Br)nn1-c1ncccc1Cl [Chlorantraniliprole] | 1.65^a g/mL | – | – |
| CN/C(=N\[N+](=O)[O-])NCc1cnc(Cl)s1 [Clothianidin] | – | 1.61 g/mL | solubility [4]: 340 µg/mL (≈ 1360 µM) |
| CNC(=O)c1cc(C#N)cc(C)c1NC(=O)c1cc(Br)nn1-c1ncccc1Cl [Cyantraniliprole] | 1.65^a g/mL | – | – |
| CC(C1CC1)C(O)(Cn1cncn1)c1ccc(Cl)cc1 (stereo not drawn) [Cyproconazole] | 1.31^a g/mL | – | – |
| CC[S+]([O-])c1c(C#N)nn(-c2c(Cl)cc(C(F)(F)F)cc2Cl)c1N (stereo not drawn) [Ethiprole] | – | 1.69 g/mL | – |
| CSC1=N[C@@](C)(c2ccccc2)C(=O)N1Nc1ccccc1 [Fenamidone] | – | 1.29 g/mL | solubility (physchem): 7.8 µg/mL (≈ 25 µM) |
| N#Cc1nn(-c2c(Cl)cc(C(F)(F)F)cc2Cl)c(N)c1[S+]([O-])C(F)(F)F (stereo not drawn) [Fipronil] | – | 1.71 g/mL | solubility (physchem): 3.78 µg/mL (≈ 8.65 µM) |
| O=[N+]([O-])c1cc(C(F)(F)F)c(Cl)c([N+](=O)[O-])c1Nc1ncc(C(F)(F)F)cc1Cl [Fluazinam] | 1.80^a g/mL | – | Solubility in Water [3]: 0.68^a mg/L |
| Cc1cc(C(F)(C(F)(F)F)C(F)(F)F)ccc1NC(=O)c1cccc(I)c1C(=O)NC(C)(C)CS(C)(=O)=O [Flubendiamide] | 1.78^a g/mL | – | – |
| N#Cc1c[nH]cc1-c1cccc2c1OC(F)(F)O2 [Fludioxinil] | – | 1.54 g/mL | Solubility in Water [4]: 1.8 mg/L (≈ 7.25 µM) |
| O=C(NCCc1ncc(C(F)(F)F)cc1Cl)c1ccccc1C(F)(F)F [Fluopyram] | – | 1.53 g/mL | solubility [4]: 16 µg/mL (≈ 40.3 µM) |
| CO/N=C(/C1=NOCCO1)c1ccccc1Oc1ncnc(Oc2ccccc2Cl)c1F [Fluoxastrobin] | – | 1.42 g/mL | solubility [4]: 2.29 µg/mL (≈ 4.99 µM) |
| O=C1C=C(N(Cc2ccc(Cl)nc2)CC(F)F)CO1 [Flupyradifurone] | – | 1.43 g/mL | Solubility in Water [4]: 3200 mg/L (≈ 11100 µM) |
| O=c1c2cc(F)ccc2nc(-n2cncn2)n1-c1ccc(Cl)cc1Cl [Fluquinconazole] | – | 1.58 g/mL | – |
| O=[N+]([O-])NC1=NCCN1Cc1ccc(Cl)nc1 [Imidacloprid] | – | 1.54 g/mL | Solubility in Water [4]: 610 mg/L (≈ 2390 µM) |
| CC(C)C1CCC(Cc2ccc(Cl)cc2)C1(O)Cn1cncn1 (stereo not drawn) [Ipconazole] | – | 1.2 g/mL | solubility (physchem): 9.34 µg/mL (≈ 28 µM) |
| CC(C)NC(=O)N1CC(=O)N(c2cc(Cl)cc(Cl)c2)C1=O [Iprodione] | – | 1 g/mL | solubility (physchem): 6.8 µg/mL (≈ 20.6 µM) |

| Molecule | Density [1] | Density [2] | also measured |
| --- | --- | --- | --- |
| N#Cc1ccccc1NC(=O)c1snc(Cl)c1Cl [Isotianil] | 1.56^a g/mL | – | Solubility in Water [4]: 0.5 mg/L (≈ 1.68 µM) |
| COCC(=O)N(c1c(C)cccc1C)[C@H](C)C(=O)OC [Metalaxyl-M] | 1.09^a g/mL | – | – |
| COCC(=O)N(c1c(C)cccc1C)C(C)C(=O)OC (stereo not drawn) [Metalaxyl] | – | 1.2 g/mL | solubility [4]: 8400 µg/mL (≈ 30100 µM) |
| CNC(=O)Oc1cc(C)c(SC)c(C)c1 [Methiocarb] | – | 1.25 g/mL | solubility [4]: 27 µg/mL (≈ 120 µM) |
| CNC(=O)/C(=N/OC)c1ccccc1Oc1ccccc1 [Metominostrobin] | 1.13^a g/mL | – | – |
| O=C(Nc1ccccc1)N(Cc1ccc(Cl)cc1)C1CCCC1 [Pencycuron] | – | 1.22 g/mL | Solubility in Water [4]: 0.3 mg/L (≈ 0.912 µM) |
| Cc1nn(C)c(F)c1C(=O)Nc1ccccc1C(C)CC(C)C (stereo not drawn) [Penflufen] | 1.18^a g/mL | – | Solubility in Water [4]: 10.9 mg/L (≈ 34.3 µM) |
| CO/C=C(/C(=O)OC)c1ccccc1COc1cccc(C(F)(F)F)n1 [Picoxystrobin] | 1.28^a g/mL | – | Solubility in Water [3]: 8.30^a mg/L |
| CC12CC1(C)C(=O)N(c1cc(Cl)cc(Cl)c1)C2=O (stereo not drawn) [Procymidone] | 1.43^a g/mL | – | – |
| CCCC1COC(Cn2cncn2)(c2ccc(Cl)cc2Cl)O1 (stereo not drawn) [Propiconazole] | 1.39^a g/mL | – | – |
| OC(Cc1ccccc1Cl)(Cn1nc[nH]c1=S)C1(Cl)CC1 (stereo not drawn) [Prothioconazole] | – | 1.36 g/mL | solubility [4]: 300 µg/mL (≈ 871 µM) |
| COC(=O)N(OC)c1ccccc1COc1ccn(-c2ccc(Cl)cc2)n1 [Pyraclostrobin] | 1.34^a g/mL | – | Solubility in Water [3]: 26.0^a mg/L |
| CC(c1ccc(C(F)(F)F)nc1)S(C)(=O)=NC#N (stereo not drawn) [Sulfoxaflor] | 1.34^a g/mL | – | – |
| CC(C)(C)C(O)(CCc1ccc(Cl)cc1)Cn1cncn1 (stereo not drawn) [Tebuconazole] | – | 1.25 g/mL | – |
| N#C/N=C1\SCCN1Cc1ccc(Cl)nc1 [Thiacloprid] | – | 1.46 g/mL | solubility [4]: 184 µg/mL (≈ 728 µM) |
| CN1COCN(Cc2cnc(Cl)s2)/C1=N\[N+](=O)[O-] [Thiamethoxam] | 1.76^a g/mL | – | Solubility in Water [3]: 1278^a mg/L |
| CS/C(C)=N\OC(=O)N(C)SN(C)C(=O)O/N=C(\C)SC [Thiodicarb] | – | 1.47 g/mL | solubility [4]: 22.2 µg/mL (≈ 62.6 µM) |
| CC(C)(C)C(O)C(Oc1ccc(Cl)cc1)n1cncn1 (stereo not drawn) [Triadimenol] | – | 1.27 g/mL | solubility (physchem): 72 µg/mL (≈ 243 µM) |
| CON=C(C(=O)OC)c1ccccc1CON=C(C)c1cccc(C(F)(F)F)c1 [Trifloxystrobin] | – | 1.36 g/mL | solubility (physchem): 0.61 µg/mL (≈ 1.49 µM) |
| Abamectin | 1.28^a g/mL | – | Solubility in Water [3]: 36.4^a mg/L |
| Spinetoram | 1.18^a g/mL | – | Solubility in Water [3]: 162^a mg/L |
| Spinosad | 1.20^a g/mL | – | Solubility in Water [3]: 295^a mg/L |
